Consider one compound from publication PMC11082890, “Phenazine Cations as Anticancer Theranostics” (Journal of the American Chemical Society, 2024).

Each structure is given as a SMILES string.

Test in all cases: MTT cytotoxicity assay, 48 h
What all share (assay type): cell-based

For assay [1], the system named is A2780 human ovarian cancer cells. The note with it: A2780, 48 h treatment, value (S.D.). The method, then: (§1) First, the cytotoxicity of 1^2+ and 2^2+ toward several cancer cell lines was examined. The viability of cells exposed to their chloride salts was assessed by an MTT (3-(4,5-dimethylthiazol-2-yl)-2,5-diphenyltetrazolium bromide) assay, and the common chemotherapeutic agent cisplatin was employed as a positive control, Figure 3.
(§2) S2. Tissue Culture and Microscopy Methods
(§3) Cell media was purchased sterile from Sigma-Aldrich. A2780 human ovarian cancer cells and A2780CIS human ovarian cisplatin resistant cells were cultured in RPMI-1640 medium. MCF7 human breast cancer cells, T24 human bladder cancer cells and HEK293 human embryonic kidney cells were cultured in DMEM medium. All growth medium was supplemented with 10 % fetal bovine serum (FBS), 2 mM L-Glutamine, 100 IU mL-1 penicillin and 100 μg mL-1 streptomycin and sterile filtered before use. Cell cultures were grown by incubation at 37 ᵒC with 5 % CO2 and were frequently passaged with trypsin when confluency of around 80 % was reached.
(§4) All cells used were at passage numbers below 50.
(§5) S2b. Preparation of Compounds
(§6) Stock solutions of compounds were solubilized in 10 % PBS (Phosphate Buffer Saline) and 90 % media.
(§7) Solutions were then sterile filtered through a 0.22 μm filter prior to use.
(§8) S2c. Cytotoxicity (MTT Assay) and Determination of IC50 Values
(§9) MTT (3-(4,5-Dimethylthiazol2-yl)-2,5-diphenyltetrazolium bromide)) is a yellow tetrazolium salt that is reduced to formazan in metabolically active cells. Therefore, the purple coloured formazan can be dissolved and quantified through absorbance as a measure of cell viability. Cells were seeded in 48 well plates at a density of 5 x 10^4 cells per well and incubated for 24 hours prior to treatment. After 24 hours, compound (10 % PBS:
(§10) 90 % medium) was added over a concentration gradient from 0.1 to 100 μM with each concentration in triplicate. Some wells were treated with a concentration range of cisplatin as a positive control. Cells were incubated with the relevant concentrations of compound for 48 hours, after which the media was removed and replaced with MTT (0.5 mg mL-1 in serum-free medium) for a period of 30-45 minutes. The MTT solution was then carefully removed and the formazan eluted with isopropanol (130 μL per well). 100 μL from each well was transferred into a 96 well plate to enable quantification of cell viability using a plate reader measuring absorbance at 570 nm. An average absorbance was obtained for each concentration and the cell viability was then calculated as a percentage of the untreated negative control wells. A graph of cell viability against concentration was plotted and the IC50 (the concentration at which the cell viability is 50 %) determined by interpolation. The IC50 values are reported as an average of at least 3 independent biological replicates. […]
(§11) All plates were then incubated for another 24 hours following light treatment. Media was then removed from each well and replaced with MTT (0.5 mg mL-1 in serum-free medium) for 30-45 minutes. […]
(§12) The data was then plotted as a graph of cell viability against concentration to determine the IC50 values by interpolation before and after light treatment.

In assay [2] the test system is A2780CIS human ovarian cisplatin resistant cells. The note with it: 48 h treatment, value (S.D.). The method, then:
as §1, §2, §3, §4, §5, §6, §7, §8, §9, §10, §11, §12

For assay [3], the system named is HEK293 human embryonic kidney cells. The note with it: HEK293 noncancerous cells, 48 h treatment, value (S.D.). The method, then:
as §1, §2, §3, §4, §5, §6, §7, §8, §9, §10, §11, §12

The subject of assay [4] is MCF7 human breast cancer cells. The note with it: MCF7, 48 h treatment, value (S.D.). The method, then:
as §1, §2, §3, §4, §5, §6, §7, §8, §9, §10, §11, §12

For assay [5], the system named is T24 human bladder cancer cells. Particulars: T24, 48 h treatment, value (S.D.). As for the experimental part:
as §1, §2, §3, §4, §5, §6, §7, §8, §9, §10, §11, §12

The term IC50 denotes the midpoint of a concentration-inhibition curve.

In the case of `N.N.[Cl][Pt][Cl]` [cisplatin], the IC50 in assay [1] came out at 1.3 µM; in assay [2], 19 µM; in assay [3] it was 5 µM; in assay [4], 26 µM; in assay [5], 3 µM.
